Laboratory results published in a melting point compilation (Tetko et al.; mined from patent text by program, amines drawn as free bases though some values may be those of a salt).

Structure (SMILES) | melting point [°C]
CC(C)(C)OC(=O)NC(C)(C)c1ccc(-c2ccc3nn(C4CCCCO4)cc3c2-c2cc[nH]n2)cc1 (centres undefined) | 99 to 105
Cc1ccc(S(=O)(=O)NC(=S)NC23CC4CC(CC(C4)C2)C3)cc1 | 170 to 173
N#Cc1ccc([N+](=O)[O-])cc1[N+](=O)[O-] | 88 to 92
CNCC1(c2cccc(C(F)(F)F)c2)CCN(C(=O)CN2CCN(c3cnccn3)CC2)CC1 | 137 to 139
CCC(C)(C)c1cc(C(=O)O)c(O)c(C(C)(C)CC)c1 | 132 to 133
Cc1cc(F)ccc1Oc1ccc(C2=CC=CN3CCS(=O)(=O)N=C23)cc1 | 240 to 242
CCc1n[nH]c2c1nc(-c1ccccc1)c1ccccc12 | 250 to 251
CC(=O)c1ccc(Br)cn1 | 112
COc1ccc2c(c1)[C@H](CO)OC2=O | 137 to 140
O=C1N(CC2CCCO2)c2c(Cl)cccc2C12COc1cc3c(cc12)CCO3 (centres undefined) | 192 to 193
CCOc1cc2c(Nc3ccc(Sc4nccn4C)c(Cl)c3)c(C#N)cnc2cc1N1CCC(N2CCCC2)CC1 | 203 to 207
Nc1sc2c(c1C(=O)c1ccsc1)CCC(Cc1ccccc1)C2 (centres undefined) | 57 to 58
CC(=O)SC(CC(=O)c1ccc(F)cc1)C(=O)O (centres undefined) | 108 to 110
CS(=O)(=O)N(CCBr)N(S(C)(=O)=O)S(C)(=O)=O | 147 to 148
CS(=O)(=O)Nc1cc2occ(N3CCCC3=O)c(=O)c2cc1Oc1ccccc1 | 192 to 193
CC(=O)NCC1OC(n2cc(C=CBr)c(=O)[nH]c2=O)CC1Cl (centres undefined) | 163 to 165
c1ccc(Cn2c3c(c4ccccc42)CCC(Cc2nnn[nH]2)S3)cc1 (centres undefined) | 160 to 165
CCOC(=O)c1c(C(F)(F)F)nc(C(F)(F)F)c(C(=O)OC)c1N=[N+]=[N-] | 46 to 47
CC(C)C(C)(NC(c1ccccc1)c1ccccc1)P(O)O (centres undefined) | 177
N#Cc1cc(-c2nccs2)[nH]c1C(CC1CCOCC1)c1ccc(S(=O)(=O)C2CC2)cc1 (centres undefined) | 114 to 116
CN1Cc2ccccc2[C@H]2c3cccc4[nH]cc(c34)C[C@@H]21 (relative stereo) | 215
CCCCCn1c(=O)c2cc(C(=O)O)cn2c2ccccc21 | 184 to 186
CCn1nc(-c2ccc(Oc3nc4cccnc4n3C)cc2)c2nccnc21 | 161 to 162
COc1cc(C(C)=O)ccc1OCCCN1CCC(C(O)(c2cccc(F)c2)c2cccc(F)c2)CC1 | 149 to 151
Cn1c(=O)[nH]c2cc(CC(=O)O)ccc21 | 220

Structure (SMILES) | melting point [°C]
CN(C)C(=O)C1(NS(=O)(=O)c2ccc3c(Cl)cnc(NC(=N)N)c3c2)CCCC1 | 264 to 268
CCOc1ccc(OC)c([N+](=O)[O-])c1 | 33 to 36
COC(=O)c1cc(C(=O)OC)n(C(c2ccccc2)(c2ccccc2)c2ccccc2)n1 | 212 to 214
CCN(C(=O)c1ccc(C(=O)c2cnc3ccccn23)cc1)c1ccccc1 | 141 to 145
CC(C)(O)C#Cc1ccc(C(=C2CC(C)(C)CC(C)(C)C2)c2ccc(O)cc2)cc1 | 186 to 187
CC(Cc1ccccc1)NC(=O)C(F)(F)F (centres undefined) | 82 to 83
CON=C(c1ccccc1COc1cc(C)ccc1C)C1OCCO1 | 136 to 137
CCOC(=O)c1ccccc1Cn1c(C(=O)O)cc2ccccc21 | 136
O=C1COc2ccccc2C(=O)C1=CNc1ccccc1 | 94 to 96
CCO[C@@H](Cc1ccc(OCCc2nc(-c3ccc(C(F)(F)F)cc3)oc2C)c2ccsc12)C(=O)O | 126 to 128
O=C(O)C(F)Oc1ccc(Cl)cc1Cl (centres undefined) | 89 to 91
CCOC(=O)NC(Cc1ccccc1)c1ccccc1 (centres undefined) | 74 to 75
CN1CC=C(c2cccc(C(F)(F)F)c2)n2ncc(C#N)c21 | 120 to 122
C=C(C(=O)c1ccc(OC)c(Cl)c1Cl)c1ccc(Br)cc1 | 110 to 116
O=C(OC1CCN(Cc2ccccc2)CC1)c1ccccc1I | 73 to 74
O=c1c2cccc3ncc(c(=O)n1CCCNS(=O)(=O)C(F)(F)F)n32 | 124 to 125
O=C(O)COc1cc(Cl)sc1C(=O)O | 214
CC(=O)OC1C(OC2=NN(Cc3ccccc3)C(=O)C3CC23)c2cc(C#N)ccc2OC1(C)C (centres undefined) | 149 to 151
Cc1ccccc1NC(=O)c1ccccc1C(c1ccc(O)cc1)c1ccc(O)cc1 | 267 to 269
COc1cc(-c2ncc(C(F)(F)F)cc2OC)ccc1Cl | 62 to 63
CCC1CC(=O)N(Cc2ccc(NS(C)(=O)=O)cc2)N=C1c1ccc(OC)c(OC)c1 (centres undefined) | 81
COC(=O)c1cc(-c2ccccc2)c(=O)n2c1-c1sccc1CN2C(C)=O | 132 to 134
Fc1cc(-c2ccno2)c(Cl)cc1Cl | 112 to 113
CN1[C@H]2CC[C@@H]1[C@H](C=O)[C@@H](c1ccc(Cl)c(Cl)c1)C2 | 131 to 135
CSc1nn2c(N3C[C@@H](C)N[C@@H](C)C3)cc(C)nc2c1S(=O)(=O)c1ccccc1 | 220 to 221

Structure (SMILES) | melting point [°C]
CCOC(=O)Cn1c2c([nH]c(=O)c1=O)CCC1=C2C=C(n2ccc(N3CCN(c4ccc([N+](=O)[O-])cc4)CC3)c2)CC1 | 229
ONCC1(c2ccc(OCc3ccc4ccccc4n3)cc2)CCCC1 | 116 to 117
O=C1O[C@@H](CNC(=S)C(F)F)CN1c1cc(F)c(N2CCS(=O)(=O)CC2)c(F)c1 | 88 to 90
CC1(c2ccc3cc(Br)ccc3c2)OCCO1 | 80 to 82
COc1ccc2c(c1)c(-c1cc3nccnc3[nH]1)cn2C | 270 to 272
CCCCc1oc2ccccc2c1C(=O)Nc1ccc2cc(O)ccc2c1 | 162 to 164
CCCCCCCCC1COC(c2ccc(O)cc2)OC1 (centres undefined) | 96 to 97
Cc1ccc(NS(=O)(=O)c2ccc(Cl)nc2)c2[nH]cc(C#N)c12 | 262 to 263
CC(=O)Oc1ccc(-n2c3c(c(C(C)=O)c2-c2ccccc2)-c2ccccc2CC3)cc1C(=O)O | 223 to 226
COc1cccc2c1nc(C(F)F)n2-c1nc(-c2ccc(N)nc2)nc(N2CCOCC2)n1 | 259 to 261
CC(=O)Nc1cc(Cl)ccc1CCOC(C)=O | 129
CCOC(=O)CCC(=O)c1cnc2c(OC)cccc2c1NCc1ccccc1C | 152 to 155
Cc1ncccc1O[C@@H]1COc2ccc(OCc3ccccc3)cc2[C@@H]1O (relative stereo) | 133 to 134
CC=Cn1c(C(F)(F)F)nn(-c2c([N+](=O)[O-])cc(C(F)(F)F)cc2[N+](=O)[O-])c1=O | 136
CCCc1c(OCC2COc3c(F)cc(CC(=O)O)cc32)ccc(C(C)=O)c1O (centres undefined) | 133 to 135
CCCOc1ccc(-c2scc(-c3ccccc3Cl)c2CC(=O)N=C(N)N)cc1 | 98 to 99
O=C1C/C(=C\c2ccccc2[N+](=O)[O-])C(=O)N1 | 148
CCOCc1ncc[nH]1 | 205 to 206
O=C(O)C(O)=CC(=O)c1cc(Cc2ccc(F)cc2)cn(Cc2ccccc2F)c1=O | 182 to 184
c1ccc2c(c1)[nH]c1cnc(-c3nc(C4CC4)no3)cc12 | 256 to 257
O=C1CCC(N2Cc3cc(CNC(=O)Nc4cccc(Cl)c4)ccc3C2=O)C(=O)N1 (centres undefined) | 215 to 217
CCCCCCCC(=O)c1ccc(CCC(CCOC(C)=O)(CCOC(C)=O)NC(C)=O)cc1 | 83 to 86
O=C(NC1CCCC1)c1ccccc1C(c1ccc(O)cc1)c1ccc(O)cc1 | 148 to 150
CCc1nc2ncnc(-c3c(C)cc(C)cc3C)c2[nH]1 | 215 to 217
COc1ccc(CCc2nc(C(N)=O)c[nH]2)cc1 | 218 to 219

Structure (SMILES) | melting point [°C]
CCc1[nH]n(C2CCCC2)c2nc(Cc3ccc(OC)c(OC)c3)nc(=O)c1-2 | 148 to 149
O=C(NCCCCC1CCSS1)n1cc(F)c(=O)[nH]c1=O (centres undefined) | 126
NC(=NO)c1ncn2c1[C@@H]1CCN1C(=O)c1c(Br)cccc1-2 | 265 to 266
CCOC1CC2(C)C(CCC3C4CC(O)C(Br)C4(C)CC(N(C)C)C32)CC1O (centres undefined) | 173 to 174
COc1cccc2c1OCN(CCc1ccc(C)cc1)C2 | 58 to 63
CN1C(=O)CN(c2cccc(C(F)(F)F)c2)NC1=O | 163 to 165
O=C(O)CC1CCN(c2ccc3c(NC(=O)CC4CCCCC4)c(Cl)ccc3n2)CC1 | 242 to 244
NS(=O)(=O)NC(=O)CNC(=O)NCCCCC1CCSS1 (centres undefined) | 143 to 145
CC(Oc1ccc(Oc2ccc(C(F)(F)F)cn2)cc1)C(=O)OCCOCc1ccccc1 (centres undefined) | 44 to 47
Cc1cccc([N+](=O)[O-])c1CC(CC(=O)O)C(=O)O (centres undefined) | 172 to 176
CN1CCN(c2cccc3c2C[C@H](NC(=O)c2ccc(C(=O)C(F)(F)F)cc2)CC3)CC1 | 91 to 93
COC(=O)c1cc([N+](=O)[O-])c(N2CCSC2=N)c([N+](=O)[O-])c1 | 138
CCOC(=O)N1CCC(n2c(=O)n(C)c3cc(Cl)ccc32)CC1 | 122
COc1nc2ncccc2c2nc(SCc3ccccc3)nn12 | 282 to 284
COc1cc2c(cc1OC(C)=O)C1Cc3ccc(OC)c(OC(C)=O)c3CN1CC2 (centres undefined) | 212 to 214
CCOC(=O)c1cc2c(nc1C(=O)OCC)OCC2O (centres undefined) | 73 to 77
Cc1nc(C(=O)N(C)C)c2n1-c1ccc(Cl)cc1C(c1ccccc1Cl)=NC2 | 225 to 230
CCOC(=O)C(C)(C)Oc1ccc(CNc2ccc(Cl)cc2)cc1OC | 73 to 74
C/C(=C\c1ccc(OC(C)C)cc1Oc1ncc(C(F)(F)F)cc1Cl)C(=O)NS(=O)(=O)NCC1CCCO1 (centres undefined) | 125 to 126
CCc1nc(/C=C/c2cn(-c3ccccc3)nc2OCc2ccc(OCc3nc(-c4cccc(-c5nnn[nH]5)c4)oc3C)c(OC)c2)cs1 | 144 to 147
CC(C#N)(C(N)=O)c1cccc(Oc2ccccc2)c1 (centres undefined) | 123 to 125
COc1cc(O)c2c(=O)c(OC(C)C)c(-c3ccc(O)c(OC)c3)oc2c1 | 169 to 171
C=CCc1cc2c(c(CC=C)c1O)CCC(=O)N2CC=C(C)C | 133 to 135
COc1c(C=NO)ccc(Cl)c1Cl | 82 to 83
